In patent publication US20260256792A1, “TREATMENT OF CHRONIC SPONTANEOUS URTICARIA BY ADMINISTERING (R)-2-[3-[4-AMINO-3-(2-FLUORO-4-PHENOXY-PHENYL)PYRAZOLO[3,4-D]PYRIMIDIN-1-YL]PIPERIDINE-1-CARBONYL]-4-METHYL-4-[4-(OXETAN-3-YL)PIPERAZIN-1-YL]PENT-2-ENENITRILE” (priority 2023, published 2026):

Tested on: angioedema in CSU patients
Assay: Phase 2 CSU study: angioedema activity score over 7 days (AAS7)
Assay type: in vivo, human
Design: AAS7, Median / AAS7 Change from baseline, Median: scale not given here
From the text: The study comprises a 12 week, randomized, double-blind, placebo-controlled, multi-center, dose-ranging efficacy and safety phase, followed by a 40 week open label extension (OLE) phase (see FIG. 1). The study consists of three phases and an optional OLE phase. […] The weekly angioedema activity score (AAS7) was proposed as a tertiary endpoint. […] Patients were to complete the AAS using the e-diary. The e-diary was to be used once daily on the same time of each day recording of participant's answers to the angioedema activity score over 7 days (AAS7) questionnaire.

[1] = Patients with Prior Omalizumab Use, 400 mg TID, Week 1
[2] = Patients with Prior Omalizumab Use, 400 mg TID, Week 2
[3] = Patients with Prior Omalizumab Use, 400 mg TID, Week 3
[4] = Patients with Prior Omalizumab Use, 400 mg TID, Week 4
[5] = Patients with Prior Omalizumab Use, 400 mg TID, Week 5
[6] = Patients with Prior Omalizumab Use, 400 mg TID, Week 6
[7] = Patients with Prior Omalizumab Use, 400 mg TID, Week 7
[8] = Patients with Prior Omalizumab Use, 400 mg TID, Week 8
[9] = Week 8, 400 mg BID, Incomplete Responders with angioedema at baseline, double-blind period
[10] = Week 8, 400 mg QPM, Incomplete Responders with angioedema at baseline, double-blind period
[11] = Week 8, 400 mg TID, Incomplete Responders with angioedema at baseline, double-blind period
[12] = Week 9, 400 mg BID, Incomplete Responders with angioedema at baseline, double-blind period
[13] = Week 9, 400 mg QPM, Incomplete Responders with angioedema at baseline, double-blind period
[14] = Week 9, 400 mg TID, Incomplete Responders with angioedema at baseline, double-blind period
[15] = Week 10, 400 mg BID, Incomplete Responders with angioedema at baseline, double-blind period
[16] = Week 10, 400 mg QPM, Incomplete Responders with angioedema at baseline, double-blind period
[17] = Week 10, 400 mg TID, Incomplete Responders with angioedema at baseline, double-blind period
[18] = Week 11, 400 mg BID, Incomplete Responders with angioedema at baseline, double-blind period
[19] = Week 11, 400 mg QPM, Incomplete Responders with angioedema at baseline, double-blind period
[20] = Week 11, 400 mg TID, Incomplete Responders with angioedema at baseline, double-blind period
[21] = Week 12, 400 mg BID, Incomplete Responders with angioedema at baseline, double-blind period
[22] = Week 12, 400 mg QPM, Incomplete Responders with angioedema at baseline, double-blind period
[23] = Week 12, 400 mg TID, Incomplete Responders with angioedema at baseline, double-blind period

## CC(C)(C=C(C#N)C(=O)N1CCC[C@@H](n2nc(-c3ccc(Oc4ccccc4)cc3F)c3c(N)ncnc32)C1)N1CCN(C2COC2)CC1 [rilzabrutinib, (R)-2-[3-[4-amino-3-(2-fluoro-4-phenoxy-phenyl)pyrazolo[3,4-d]pyrimidin-1-yl]piperidine-1-carbonyl]-4-methyl-4-[4-(oxetan-3-yl)piperazin-1-yl]pent-2-enenitrile]
Patients with Prior Omalizumab Use, 400 mg QPM, Week 8
  AAS7 Change from baseline, Median: −50.00
[1]
  AAS7, Mean (SD): 6.33 (7.77)
  AAS7, Median: 4.00
  AAS7 Change from baseline, Median: −25.83
  AAS7 Percent change from baseline, Mean (SD): −79.91 (18.61) %
  AAS7 Percent change from baseline, Median: −76.47%
[2]
  AAS7, Mean (SD): 4.00 (6.93)
  AAS7, Median: 0.00
  AAS7 Change from baseline, Mean (SD): −27.28 (19.44)
  AAS7 Change from baseline, Median: −36.00
  AAS7 Percent change from baseline, Mean (SD): −76.47 (40.75) %
  AAS7 Percent change from baseline, Median: −100.00%
[3]
  AAS7, Mean (SD): 7.00 (7.00)
  AAS7, Median: 7.00
  AAS7 Change from baseline, Mean (SD): −24.28 (18.46)
  AAS7 Change from baseline, Median: −33.83
  AAS7 Percent change from baseline, Mean (SD): −66.83 (43.45) %
  AAS7 Percent change from baseline, Median: −82.86%
[4]
  AAS7, Mean (SD): 7.11 (6.30)
  AAS7, Median: 9.33
  AAS7 Change from baseline, Mean (SD): −24.17 (16.75)
  AAS7 Change from baseline, Median: −31.50
  AAS7 Percent change from baseline, Mean (SD): −68.85 (36.02) %
  AAS7 Percent change from baseline, Median: −77.14%
[5]
  AAS7, Median: 19.83
  AAS7 Change from baseline, Mean (SD): −18.00 (19.67)
  AAS7 Change from baseline, Median: −21.00
  AAS7 Percent change from baseline, Mean (SD): −44.59 (59.12) %
  AAS7 Percent change from baseline, Median: −51.43%
[6]
  AAS7, Mean (SD): 7.00 (8.19)
  AAS7, Median: 5.00
  AAS7 Change from baseline, Mean (SD): −24.28 (20.16)
  AAS7 Change from baseline, Median: −35.83
  AAS7 Percent change from baseline, Mean (SD): −64.55 (51.17) %
  AAS7 Percent change from baseline, Median: −87.76%
[7]
  AAS7, Mean (SD): 9.72 (16.84)
  AAS7, Median: 0.00
  AAS7 Change from baseline, Mean (SD): −21.56 (12.79)
  AAS7 Change from baseline, Median: −17.00
  AAS7 Percent change from baseline, Mean (SD): −76.19 (41.24) %
  AAS7 Percent change from baseline, Median: −100.00%
[8]
  AAS7, Mean (SD): 4.67 (7.23)
  AAS7, Median: 1.00
  AAS7 Change from baseline, Mean (SD): −26.61 (19.68)
  AAS7 Change from baseline, Median: −36.00
[9]
  AAS7 Percent change from baseline, Mean (SD): −100.00 (0.00)
  AAS7 Percent change from baseline, Median: −100.00
[10]
  AAS7 Percent change from baseline, Mean (SD): −73.53 (NC)
  AAS7 Percent change from baseline, Median: −73.53
[11]
  AAS7 Percent change from baseline, Mean (SD): −73.69 (43.46)
  AAS7 Percent change from baseline, Median: −97.55
[12]
  AAS7, Mean (SD): 0.00 (0.00)
  AAS7, Median: 0.00
  AAS7 Change from baseline, Mean (SD): −39.50 (3.54)
  AAS7 Change from baseline, Median: −39.50
  AAS7 Percent change from baseline, Mean (SD): −100.00 (0.00)
  AAS7 Percent change from baseline, Median: −100.00
[13]
  AAS7, Mean (SD): 10.00 (NC)
  AAS7 Change from baseline, Mean (SD): −58.00 (NC)
  AAS7 Change from baseline, Median: −58.00
  AAS7 Percent change from baseline, Mean (SD): −85.29 (NC)
  AAS7 Percent change from baseline, Median: −85.29
[14]
  AAS7, Mean (SD): 4.39 (6.62)
  AAS7, Median: 1.17
  AAS7 Change from baseline, Mean (SD): −26.89 (19.04)
  AAS7 Change from baseline, Median: −36.00
  AAS7 Percent change from baseline, Mean (SD): −75.52 (39.95)
  AAS7 Percent change from baseline, Median: −97.14
[15]
  AAS7, Mean (SD): 0.00 (0.00)
  AAS7, Median: 0.00
  AAS7 Change from baseline, Mean (SD): −39.50 (3.54)
  AAS7 Change from baseline, Median: −39.50
  AAS7 Percent change from baseline, Mean (SD): −100.00 (0.00)
  AAS7 Percent change from baseline, Median: −100.00
[16]
  AAS7, Mean (SD): 0.00 (NC)
  AAS7, Median: 0.00
  AAS7 Change from baseline, Mean (SD): −68.00 (NC)
  AAS7 Change from baseline, Median: −68.00
  AAS7 Percent change from baseline, Mean (SD): −100.00 (NC)
  AAS7 Percent change from baseline, Median: −100.00
[17]
  AAS7, Mean (SD): 9.00 (10.15)
  AAS7, Median: 7.00
  AAS7 Change from baseline, Mean (SD): −22.28 (21.92)
  AAS7 Change from baseline, Median: −33.83
  AAS7 Percent change from baseline, Mean (SD): −55.07 (63.56)
  AAS7 Percent change from baseline, Median: −82.86
[18]
  AAS7, Mean (SD): 0.00 (0.00)
  AAS7, Median: 0.00
  AAS7 Change from baseline, Mean (SD): −39.50 (3.54)
  AAS7 Change from baseline, Median: −39.50
  AAS7 Percent change from baseline, Mean (SD): −100.00 (0.00)
  AAS7 Percent change from baseline, Median: −100.00
[19]
  AAS7, Mean (SD): 0.00 (NC)
  AAS7, Median: 0.00
  AAS7 Change from baseline, Mean (SD): −68.00 (NC)
  AAS7 Change from baseline, Median: −68.00
  AAS7 Percent change from baseline, Mean (SD): −100.00 (NC)
  AAS7 Percent change from baseline, Median: −100.00
[20]
  AAS7, Median: 0.00
  AAS7 Change from baseline, Mean (SD): −24.61 (24.03)
  AAS7 Change from baseline, Median: −36.00
  AAS7 Percent change from baseline, Mean (SD): −60.78 (67.92)
  AAS7 Percent change from baseline, Median: −100.00
[21]
  AAS7, Mean (SD): 0.00 (0.00)
  AAS7, Median: 0.00
  AAS7 Change from baseline, Mean (SD): −39.50 (3.54)
  AAS7 Change from baseline, Median: −39.50
  AAS7 Percent change from baseline, Mean (SD): −100.00 (0.00)
  AAS7 Percent change from baseline, Median: −100.00
[22]
  AAS7, Mean (SD): 5.00 (NC)
  AAS7, Median: 5.00
  AAS7 Change from baseline, Mean (SD): −63.00 (NC)
  AAS7 Change from baseline, Median: −63.00
  AAS7 Percent change from baseline, Mean (SD): −92.65 (NC)
  AAS7 Percent change from baseline, Median: −92.65
[23]
  AAS7 Change from baseline, Mean (SD): −16.50 (27.58)
  AAS7 Change from baseline, Median: −16.50
  AAS7 Percent change from baseline, Mean (SD): −41.18 (83.19)
  AAS7 Percent change from baseline, Median: −41.18
